Assay results from ChEMBL document CHEMBL3608207, “Synthesis, characterization, evaluation and molecular dynamics studies of 5, 6-diphenyl-1,2,4-triazin-3(2H)-one derivatives bearing 5-substituted 1,3,4-oxadiazole as potential anti-inflammatory and analgesic agents” (Eur J Med Chem, 2015).

What was measured:
Rattus norvegicus [1] = experiment: Anti-inflammatory activity in rat model of acute inflammation assessed as inhibition of carrageenan-induced paw oedema dosed at equimolar oral dose relative to 10 mg/kg, po indomethacin dosed 1 hr before carrageenan injection and measured 5 hrs after carrageenan injection; type: functional
Rattus norvegicus [2] = experiment: Toxicity in healthy albino rat assessed as induction of convulsion up to 500 mg/kg, po; type: organism-based; details: in vivo
Rattus norvegicus [3] = experiment: Anti-inflammatory activity in rat Freund's adjuvant induced arthritis model of chronic inflammation assessed as inhibition of right hind paw swelling at equimolar oral dose relative to 10 mg/kg, po indomethacin dosed after 14 days from day of adjuvant injection until day 21 and measured on day 15; type: functional
Rattus norvegicus [4] = experiment: Anti-inflammatory activity in rat Freund's adjuvant induced arthritis model of chronic inflammation assessed as inhibition of right hind paw swelling at equimolar oral dose relative to 10 mg/kg, po indomethacin dosed after 14 days from day of adjuvant injection until day 21 and measured on day 21; type: functional
Rattus norvegicus [5] = experiment: Toxicity in healthy albino rat assessed as induction of coma up to 500 mg/kg, po; type: organism-based; details: in vivo
Rattus norvegicus [6] = experiment: Toxicity in healthy albino rat assessed as induction of diarrhoea up to 500 mg/kg, po; type: organism-based; details: in vivo
Rattus norvegicus [7] = experiment: Gastro-intestinal toxicity in rat Freund's adjuvant induced arthritis model of chronic inflammation assessed as ulcer index at equimolar oral dose relative to 10 mg/kg, po indomethacin dosed after 14 days from day of adjuvant injection until day 21 and measured on day 21; type: organism-based; details: in vivo, 336 h
Rattus norvegicus [8] = experiment: Anti-inflammatory activity in rat Freund's adjuvant induced arthritis model of chronic inflammation assessed as inhibition of right hind paw swelling at equimolar oral dose relative to 10 mg/kg, po indomethacin dosed after 14 days from day of adjuvant injection until day 21 and measured on day 12; type: functional
Rattus norvegicus [9] = experiment: Anti-inflammatory activity in rat model of acute inflammation assessed as inhibition of carrageenan-induced paw oedema dosed at equimolar oral dose relative to 10 mg/kg, po indomethacin dosed 1 hr before carrageenan injection and measured 2 hrs after carrageenan injection; type: functional
Rattus norvegicus [10] = experiment: Toxicity in healthy albino rat assessed as induction of lethargy up to 500 mg/kg, po; type: organism-based; details: in vivo
Rattus norvegicus [11] = experiment: (§1) Renal toxicity in rat Freund's adjuvant induced arthritis model of chronic inflammation assessed as histological changes at equimolar oral dose relative to 10 mg/kg, po indomethacin dosed after 14 days from day of adjuvant injection until day 21 and measured on day 21 by hematoxylin and eosin staining based microscopy; type: organism-based; details: in vivo, 336 h
Rattus norvegicus [12] = experiment: as §1, with “Gastro-intestinal” for “Renal”; type: organism-based; details: in vivo, 336 h
Rattus norvegicus [13] = experiment: as §1, with “Hepato-toxicity” for “Renal toxicity”; type: organism-based; details: in vivo, 336 h

Compound	inhibition (INH) (Rattus norvegicus [1])	Activity (Rattus norvegicus [2])	inhibition (INH) (Rattus norvegicus [3])	inhibition (INH) (Rattus norvegicus [4])	Activity (Rattus norvegicus [5])	Activity (Rattus norvegicus [6])	UI (Rattus norvegicus [7])	inhibition (INH) (Rattus norvegicus [8])	inhibition (INH) (Rattus norvegicus [9])	Activity (Rattus norvegicus [10])	Activity (Rattus norvegicus [11])	Activity (Rattus norvegicus [12])	Activity (Rattus norvegicus [13])
O=c1nc(-c2ccccc2)c(-c2ccccc2)nn1Cc1nnc(-c2ccc([N+](=O)[O-])cc2)o1	55.96%	Non-toxic	43.82%	49.7%	Non-toxic	Non-toxic	16	41.78%	41.42%	Non-toxic	–	–	–
Nc1ccc(-c2nnc(Cn3nc(-c4ccccc4)c(-c4ccccc4)nc3=O)o2)cc1	58.83%	Non-toxic	47.9%	52.21%	Non-toxic	Non-toxic	12	45.8%	41.76%	Non-toxic	Non-toxic	Non-toxic	Non-toxic
COc1ccc(-c2nnc(Cn3nc(-c4ccccc4)c(-c4ccccc4)nc3=O)o2)cc1	55.25%	Non-toxic	43.46%	49.34%	Non-toxic	Non-toxic	11	41.05%	38.71%	Non-toxic	–	–	–
O=c1nc(-c2ccccc2)c(-c2ccccc2)nn1Cc1nnc(-c2ccc(O)cc2O)o1	59.07%	Non-toxic	49.82%	54.25%	Non-toxic	Non-toxic	10	43.97%	44.47%	Non-toxic	Non-toxic	Non-toxic	Non-toxic
O=c1nc(-c2ccccc2)c(-c2ccccc2)nn1Cc1nnc(-c2ccc(Cl)cc2)o1	57.64%	Non-toxic	45.86%	51.98%	Non-toxic	Non-toxic	18	43.36%	39.28%	Non-toxic	–	–	–
